Source: patent US20260207578A1, “COMPOUND BASED ON SULFUR/OXYGEN SUBSTITUTED GLUTARIMIDE-BASED ISOINDOLINONE SKELETON AND USE THEREOF” (Gluetacs Therapeutics (Shanghai) Co., LTD., priority 2022, published 2026)

What was measured:
Wee1 = target: T1, Wee1 (Homo sapiens, UniProt P30291+Q96SW2); experiment: Western-blot assay, substrate protein in hPBMCs; type: cell-based; settings: hPBMC cells, 24 hours, tested at 50 nM and 500 nM, table does not say which
T1 construct: endogenous in cells; host or cells: human PBMCs (Milecell Biotechnologies)
T1 sequence (P30291 whole entry): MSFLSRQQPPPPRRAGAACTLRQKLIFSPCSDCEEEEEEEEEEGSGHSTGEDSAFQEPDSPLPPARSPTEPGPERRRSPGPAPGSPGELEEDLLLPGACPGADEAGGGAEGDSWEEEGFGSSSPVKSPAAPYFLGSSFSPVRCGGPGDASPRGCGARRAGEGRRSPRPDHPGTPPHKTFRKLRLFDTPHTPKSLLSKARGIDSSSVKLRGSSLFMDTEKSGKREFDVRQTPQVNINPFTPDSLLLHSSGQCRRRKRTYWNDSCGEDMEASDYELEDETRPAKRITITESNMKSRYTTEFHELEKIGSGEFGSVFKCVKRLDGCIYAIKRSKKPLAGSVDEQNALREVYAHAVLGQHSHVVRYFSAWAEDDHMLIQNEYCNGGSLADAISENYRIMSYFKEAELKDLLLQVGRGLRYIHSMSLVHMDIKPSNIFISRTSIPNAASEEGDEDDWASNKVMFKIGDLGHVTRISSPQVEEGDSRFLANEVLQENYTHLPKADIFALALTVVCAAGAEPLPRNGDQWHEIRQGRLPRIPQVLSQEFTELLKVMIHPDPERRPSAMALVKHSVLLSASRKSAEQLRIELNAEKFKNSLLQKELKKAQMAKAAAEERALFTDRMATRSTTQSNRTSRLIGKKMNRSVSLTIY
T1 sequence (Q96SW2 whole entry): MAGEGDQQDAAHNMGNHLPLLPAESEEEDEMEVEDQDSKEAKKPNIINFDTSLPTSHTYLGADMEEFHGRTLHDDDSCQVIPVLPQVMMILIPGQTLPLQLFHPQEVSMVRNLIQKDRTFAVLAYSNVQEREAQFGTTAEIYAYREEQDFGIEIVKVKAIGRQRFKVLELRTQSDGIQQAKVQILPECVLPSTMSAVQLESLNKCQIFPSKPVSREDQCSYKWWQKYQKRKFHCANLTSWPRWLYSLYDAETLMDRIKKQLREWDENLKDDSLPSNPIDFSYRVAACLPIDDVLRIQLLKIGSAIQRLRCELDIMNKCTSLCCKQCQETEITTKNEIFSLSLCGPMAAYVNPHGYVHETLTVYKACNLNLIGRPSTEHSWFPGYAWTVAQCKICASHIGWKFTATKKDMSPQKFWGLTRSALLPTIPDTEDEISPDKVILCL
T1 sequence (Q16531 whole entry partner): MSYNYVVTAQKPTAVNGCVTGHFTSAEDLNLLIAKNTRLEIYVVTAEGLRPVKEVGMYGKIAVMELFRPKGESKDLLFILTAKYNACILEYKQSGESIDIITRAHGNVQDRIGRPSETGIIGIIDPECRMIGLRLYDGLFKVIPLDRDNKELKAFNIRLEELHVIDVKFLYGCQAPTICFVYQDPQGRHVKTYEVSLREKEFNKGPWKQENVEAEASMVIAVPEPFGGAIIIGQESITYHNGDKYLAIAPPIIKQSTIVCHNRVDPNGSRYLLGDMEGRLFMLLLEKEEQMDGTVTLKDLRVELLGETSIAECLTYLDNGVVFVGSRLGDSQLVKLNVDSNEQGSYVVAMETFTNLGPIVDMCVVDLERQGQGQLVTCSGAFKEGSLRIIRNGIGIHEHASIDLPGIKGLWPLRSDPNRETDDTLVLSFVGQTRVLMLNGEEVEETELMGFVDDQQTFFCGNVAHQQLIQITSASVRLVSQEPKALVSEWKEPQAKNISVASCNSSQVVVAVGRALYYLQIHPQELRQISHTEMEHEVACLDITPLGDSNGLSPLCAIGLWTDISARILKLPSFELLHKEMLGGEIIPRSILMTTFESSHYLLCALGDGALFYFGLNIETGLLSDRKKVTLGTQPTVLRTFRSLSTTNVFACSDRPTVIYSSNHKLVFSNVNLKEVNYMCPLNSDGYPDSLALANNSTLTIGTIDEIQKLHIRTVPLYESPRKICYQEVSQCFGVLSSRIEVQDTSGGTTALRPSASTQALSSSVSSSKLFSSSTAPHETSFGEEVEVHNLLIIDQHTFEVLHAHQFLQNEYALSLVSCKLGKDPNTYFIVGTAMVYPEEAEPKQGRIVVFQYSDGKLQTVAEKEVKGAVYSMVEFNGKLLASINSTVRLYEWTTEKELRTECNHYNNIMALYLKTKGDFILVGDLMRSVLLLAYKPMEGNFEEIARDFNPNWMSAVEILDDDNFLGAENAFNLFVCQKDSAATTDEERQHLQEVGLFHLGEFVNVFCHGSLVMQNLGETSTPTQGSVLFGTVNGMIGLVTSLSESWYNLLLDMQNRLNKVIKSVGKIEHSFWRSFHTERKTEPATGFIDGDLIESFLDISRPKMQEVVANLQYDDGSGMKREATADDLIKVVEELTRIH
In short: (§1)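 Steps: treat hPBMCs 24 h; lyse on ice in RIPA with phosphatase inhibitors; quantify protein by BCA; denature at 95 °C and blot. Remaining protein (%) is the target/internal-control band ratio, normalised; degradation rate is its complement.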

CK1α = target: T2, CK1α (Homo sapiens, UniProt P48729+Q96SW2); experiment: Western-blot assay, substrate protein in hPBMCs; type: cell-based; settings: hPBMC cells, 24 hours, tested at 50 nM and 500 nM, table does not say which
T2 construct: endogenous in cells; host or cells: human PBMCs (Milecell Biotechnologies)
T2 sequence (P48729 whole entry): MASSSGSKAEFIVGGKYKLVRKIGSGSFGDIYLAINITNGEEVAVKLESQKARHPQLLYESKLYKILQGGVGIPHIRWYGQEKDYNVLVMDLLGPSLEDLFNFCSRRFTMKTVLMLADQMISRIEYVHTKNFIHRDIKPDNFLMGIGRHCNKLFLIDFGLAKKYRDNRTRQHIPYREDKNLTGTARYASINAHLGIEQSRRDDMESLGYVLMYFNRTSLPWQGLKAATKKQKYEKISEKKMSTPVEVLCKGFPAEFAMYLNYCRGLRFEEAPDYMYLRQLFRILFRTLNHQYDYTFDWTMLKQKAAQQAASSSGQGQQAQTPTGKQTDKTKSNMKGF
T2 sequence (Q96SW2 whole entry): as the sequence (Q96SW2 whole entry) above
T2 sequence (Q16531 whole entry partner): as the sequence (Q16531 whole entry partner) above
In short: as §1

IKZF2 = target: T3, IKZF2 (Homo sapiens, UniProt Q96SW2+Q9UKS7); experiment: Western-blot assay, substrate protein in hPBMCs; type: cell-based; settings: hPBMC cells, 24 hours, tested at 50 nM and 500 nM, table does not say which
T3 construct: endogenous in cells; host or cells: human PBMCs (Milecell Biotechnologies)
T3 sequence (Q9UKS7 whole entry): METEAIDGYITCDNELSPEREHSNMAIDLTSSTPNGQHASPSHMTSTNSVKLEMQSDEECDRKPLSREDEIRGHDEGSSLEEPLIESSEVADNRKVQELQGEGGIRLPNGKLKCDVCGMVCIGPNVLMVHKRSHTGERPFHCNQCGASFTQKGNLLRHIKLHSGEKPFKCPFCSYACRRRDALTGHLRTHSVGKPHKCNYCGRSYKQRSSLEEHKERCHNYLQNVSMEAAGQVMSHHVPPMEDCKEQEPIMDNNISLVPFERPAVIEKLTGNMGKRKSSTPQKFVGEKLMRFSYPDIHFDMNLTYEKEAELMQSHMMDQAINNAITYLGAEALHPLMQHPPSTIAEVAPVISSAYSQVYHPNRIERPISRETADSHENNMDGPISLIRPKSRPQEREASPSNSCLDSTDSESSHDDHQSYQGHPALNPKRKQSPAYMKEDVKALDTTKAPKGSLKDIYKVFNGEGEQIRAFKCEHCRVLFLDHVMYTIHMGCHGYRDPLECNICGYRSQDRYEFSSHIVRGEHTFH
T3 sequence (Q96SW2 whole entry): as the sequence (Q96SW2 whole entry) above
T3 sequence (Q16531 whole entry partner): as the sequence (Q16531 whole entry partner) above
In short: as §1

MV-4-11 = experiment: Half inhibitory concentration (IC50) against tumor cells, Cell Counting Kit-8; type: cell-based; settings: Homo sapiens, MV4-11, CCK-8, 96 h treatment, read-out: inhibitory activity (IC50, nM) against tumor cells proliferation
Description: (§2) The tumor cells used herein were cultured in a cell culture medium listed in table A at 37° C. in an incubator with 5% CO2.
(§3) After the cells were treated with the compounds of the present disclosure for a period of time, the cell viability detection reagent was added to the culture medium for cell viability assessment according to the instructions provided with the CCK-8 kit. […] The growth inhibition of the compounds of the present disclosure on cells was plotted by Prism Graphpad software, and the IC50 values of the compounds of the present disclosure were calculated therefrom.

[1] = target: T4, human Cereblon WT GST-tagged protein (Homo sapiens, UniProt Q96SW2); experiment: CRBN-binding affinity, HTRF (CEREBLON BINDING kit); settings: displacement of Thalidomide-Re reagent, 3 hours at room temperature
T4 construct: purchased CISBIO 64BDCRBNPEH
T4 sequence (Q96SW2 whole entry): as the sequence (Q96SW2 whole entry) above
In short: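 HTRF competition format: compound, GST-tagged wild-type human Cereblon, Thalidomide-Re tracer and GST Eu antibody were combined in PROTAC binding buffer. Binding was derived from emission at 620 nm relative to blank and solvent control wells.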

IKZF3 = target: T5, IKZF3 (Homo sapiens, UniProt Q96SW2+Q9UKT9); experiment: Western-blot assay, substrate protein in hPBMCs; type: cell-based; settings: hPBMC cells, 24 hours, tested at 50 nM and 500 nM, table does not say which
T5 construct: endogenous in cells; host or cells: human PBMCs (Milecell Biotechnologies)
In short: (§4)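 hPBMCs (1×10^6 cells/mL) exposed 24 h to compound at 50 nM and 500 nM, lysed, and probed by Western blot. Band grayscale normalized to internal control gives % protein remaining versus DMSO; DC50 from concentration-response fit at half DMSO band intensity.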

IKZF1 = target: T6, IKZF1 (Homo sapiens, UniProt Q13422+Q96SW2); experiment: Western-blot assay, substrate protein in hPBMCs; type: cell-based; settings: hPBMC cells, 24 hours, tested at 50 nM and 500 nM, table does not say which
T6 construct: endogenous in cells; host or cells: human PBMCs (Milecell Biotechnologies)
T6 sequence (Q13422 whole entry): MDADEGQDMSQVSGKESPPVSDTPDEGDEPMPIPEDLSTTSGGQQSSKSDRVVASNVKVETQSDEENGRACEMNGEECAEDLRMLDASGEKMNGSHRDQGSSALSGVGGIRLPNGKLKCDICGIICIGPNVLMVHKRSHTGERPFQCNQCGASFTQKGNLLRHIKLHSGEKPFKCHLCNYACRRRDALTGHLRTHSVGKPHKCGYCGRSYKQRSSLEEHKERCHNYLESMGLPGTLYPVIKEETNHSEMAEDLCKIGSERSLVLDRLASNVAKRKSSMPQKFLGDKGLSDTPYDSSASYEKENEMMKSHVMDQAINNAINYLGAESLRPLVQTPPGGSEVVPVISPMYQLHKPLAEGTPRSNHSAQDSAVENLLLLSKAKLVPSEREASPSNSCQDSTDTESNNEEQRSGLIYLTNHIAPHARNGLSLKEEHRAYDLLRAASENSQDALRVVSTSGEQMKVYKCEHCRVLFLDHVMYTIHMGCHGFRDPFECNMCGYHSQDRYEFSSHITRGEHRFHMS
T6 sequence (Q96SW2 whole entry): as the sequence (Q96SW2 whole entry) above
T6 sequence (Q16531 whole entry partner): as the sequence (Q16531 whole entry partner) above
In short: as §4

GSPT1 = target: T7, GSPT1 (Homo sapiens, UniProt P15170+Q96SW2); experiment: Western-blot assay, substrate protein in hPBMCs; type: cell-based; settings: hPBMC cells, 24 hours, tested at 50 nM and 500 nM, table does not say which
T7 construct: endogenous in cells; host or cells: human PBMCs (Milecell Biotechnologies)
T7 sequence (P15170 whole entry): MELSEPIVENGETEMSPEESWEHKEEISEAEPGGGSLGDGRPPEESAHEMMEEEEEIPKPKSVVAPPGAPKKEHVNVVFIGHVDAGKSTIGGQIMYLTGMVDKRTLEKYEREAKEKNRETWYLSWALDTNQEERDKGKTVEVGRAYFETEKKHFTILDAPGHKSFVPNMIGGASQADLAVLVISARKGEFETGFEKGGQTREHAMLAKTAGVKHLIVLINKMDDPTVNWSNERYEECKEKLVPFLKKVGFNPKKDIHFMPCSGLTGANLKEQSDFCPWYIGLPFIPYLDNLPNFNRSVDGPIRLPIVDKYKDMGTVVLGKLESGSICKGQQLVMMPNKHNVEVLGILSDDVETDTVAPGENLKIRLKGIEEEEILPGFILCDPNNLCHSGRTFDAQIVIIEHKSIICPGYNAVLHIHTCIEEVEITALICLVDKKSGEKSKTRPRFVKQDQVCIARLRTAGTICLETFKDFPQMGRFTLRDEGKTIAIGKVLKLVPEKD
T7 sequence (Q96SW2 whole entry): as the sequence (Q96SW2 whole entry) above
T7 sequence (Q16531 whole entry partner): as the sequence (Q16531 whole entry partner) above
In short: as §1

CCRF-CEM = experiment: Half inhibitory concentration (IC50) against tumor cells, Cell Counting Kit-8; type: cell-based; settings: Homo sapiens, CCK-8, 96 h treatment, read-out: inhibitory activity (IC50, nM) against tumor cells proliferation
Description: as §2, §3

IC50 (MV-4-11) [nM]	IC50 [1] [µM]	IC50 (CCRF-CEM) [nM]	SMILES	substrate protein remaining % (Wee1)	substrate protein remaining % (CK1α)	substrate protein remaining % (IKZF2)	substrate protein remaining % (IKZF3)	substrate protein remaining % (IKZF1)	substrate protein remaining % (GSPT1)
100 to 500	< 0.5	–	O=C1CCC(N2Cc3cc(OC4CCCN(Cc5ccccc5-c5ccc(Cl)cc5)CC4)ccc3C2=O)C(=O)N1 (stereo not drawn) [GT-06934, 3-(5-((1-((4′-chloro-[1,1′-biphenyl]-2-yl)methyl)azepan-4-yl)oxy)-1-oxoisoindolin-2-yl)piperidine-2,6-dione]	A (0%≤ substrate protein remaining % ≤80%)	A (0%≤ substrate protein remaining % ≤80%)	A (0%≤ substrate protein remaining % ≤80%)	–	–	–
10 to 50	0.5 to 1	–	O=C1CCC(N2Cc3cc(OC4CCCN(C(c5ccccc5)c5ccccc5)CC4)ccc3C2=O)C(=O)N1 (stereo not drawn) [GT-06928, 3-(5-((1-benzhydrylazepan-4-yl)oxy)-1-oxoisoindolin-2-yl)piperidine-2,6-dione]	A (0%≤ substrate protein remaining % ≤80%)	–	A (0%≤ substrate protein remaining % ≤80%)	–	–	–
100 to 500	< 0.5	–	O=C1CCC(N2Cc3cc(OC4CCCN(C(=O)c5ccccc5-c5ccc(Cl)cc5)CC4)ccc3C2=O)C(=O)N1 (stereo not drawn) [GT-06935, 3-(5-((1-(4′-chloro-[1,1′-biphenyl]-2-carbonyl)azepan-4-yl)oxy)-1-oxoisoindolin-2-yl)piperidine-2,6-dione]	A (0%≤ substrate protein remaining % ≤80%)	A (0%≤ substrate protein remaining % ≤80%)	–	–	–	A (0%≤ substrate protein remaining % ≤80%)
1 to 10	0.5 to 1	–	O=C1CCC(N2Cc3cc(SC4CCN(C(=O)c5ccccc5-c5ccc(Cl)cc5)CC4(F)F)ccc3C2=O)C(=O)N1 (stereo not drawn) [GT-06925, 3-(5-((1-(4′-chloro-[1,1′-biphenyl]-2-carbonyl)-3,3-difluoropiperidin-4-yl)thio)-1-oxoisoindolin-2-yl)piperidine-2,6-dione]	A (0%≤ substrate protein remaining % ≤80%)	A (0%≤ substrate protein remaining % ≤80%)	A (0%≤ substrate protein remaining % ≤80%)	A (0%≤ substrate protein remaining % ≤80%)	A (0%≤ substrate protein remaining % ≤80%)	A (0%≤ substrate protein remaining % ≤80%)

More lines, now with the values behind:

SMILES	IC50 (MV-4-11) [nM]	IC50 [1] [µM]	IC50 (CCRF-CEM) [nM]	substrate protein remaining % (Wee1)	substrate protein remaining % (CK1α)	substrate protein remaining % (IKZF2)	substrate protein remaining % (IKZF3)	substrate protein remaining % (IKZF1)	substrate protein remaining % (GSPT1)
CC1(C)CCC(C(=O)N2CCC3(CC2)CC(Sc2ccc4c(c2)CN(C2CCC(=O)NC2=O)C4=O)C3)=C(c2ccc(Cl)cc2)C1 (stereo not drawn) [GT-06918, 3-(5-((7-(4′-chloro-5,5-dimethyl-3,4,5,6-tetrahydro-[1,1′-biphenyl]-2-carbonyl)-7-azaspiro[3.5]nonan-2-yl)thio)-1-oxoisoindolin-2-yl)piperidine-2,6-dione]	100 to 500	0.5 to 1	–	A (0%≤ substrate protein remaining % ≤80%)	–	A (0%≤ substrate protein remaining % ≤80%)	A (0%≤ substrate protein remaining % ≤80%)	A (0%≤ substrate protein remaining % ≤80%)	–
CC1(C)CCC(CN2CCC3(CCC(Sc4ccc5c(c4)CN(C4CCC(=O)NC4=O)C5=O)CC3)CC2)=C(c2ccc(Cl)cc2)C1 (stereo not drawn) [GT-06874, 3-(5-((3-((4′-chloro-5,5-dimethyl-3,4,5,6-tetrahydro-[1,1′-biphenyl]-2-yl)methyl)-3-azaspiro[5.5]undecan-9-yl)thio)-1-oxoisoindolin-2-yl)piperidine-2,6-dione]	100 to 500	1 to 1.9	–	A (0%≤ substrate protein remaining % ≤80%)	A (0%≤ substrate protein remaining % ≤80%)	A (0%≤ substrate protein remaining % ≤80%)	A (0%≤ substrate protein remaining % ≤80%)	–	A (0%≤ substrate protein remaining % ≤80%)
O=C1CCC(N2Cc3cc(OC4CC5(CCN(C(c6ccccc6)c6ccccc6)CC5)C4)ccc3C2=O)C(=O)N1 (stereo not drawn) [GT-06956, 3-(5-((7-benzhydryl-7-azaspiro[3.5]nonan-2-yl)oxy)-1-oxoisoindolin-2-yl)piperidine-2,6-dione]	500 to 1000	< 0.5	–	A (0%≤ substrate protein remaining % ≤80%)	A (0%≤ substrate protein remaining % ≤80%)	A (0%≤ substrate protein remaining % ≤80%)	A (0%≤ substrate protein remaining % ≤80%)	A (0%≤ substrate protein remaining % ≤80%)	–
CC1(C)CCC(CN2CCC3(CC2)CC(Sc2ccc4c(c2)CN(C2CCC(=O)NC2=O)C4=O)C3)=C(c2ccc(Cl)cc2)C1 (stereo not drawn) [GT-06873, 3-(5-((7-((4′-chloro-5,5-dimethyl-3,4,5,6-tetrahydro-[1,1′-biphenyl]-2-yl)methyl)-7-azaspiro[3.5]nonan-2-yl)thio)-1-oxoisoindolin-2-yl)piperidine-2,6-dione]	10 to 50	1 to 1.9	–	A (0%≤ substrate protein remaining % ≤80%)	A (0%≤ substrate protein remaining % ≤80%)	A (0%≤ substrate protein remaining % ≤80%)	A (0%≤ substrate protein remaining % ≤80%)	A (0%≤ substrate protein remaining % ≤80%)	A (0%≤ substrate protein remaining % ≤80%)
O=C1CCC(N2Cc3cc(OC4CC5CN(C(c6ccccc6)c6ccccc6)CC5C4)ccc3C2=O)C(=O)N1 (stereo not drawn) [GT-06955, 3-(5-((2-benzhydryloctahydro-cyclopenta[c]pyrrol-5-yl)oxy)-1-oxoisoindolin-2-yl)piperidine-2,6-dione]	50 to 100	< 0.5	–	–	A (0%≤ substrate protein remaining % ≤80%)	A (0%≤ substrate protein remaining % ≤80%)	–	A (0%≤ substrate protein remaining % ≤80%)	–
O=C1CCC(N2Cc3cc(SC4CCN(Cc5ccccc5-c5ccc(Cl)cc5)CC4(F)F)ccc3C2=O)C(=O)N1 (stereo not drawn) [GT-06924, 3-(5-((1-((4′-chloro-[1,1′-biphenyl]-2-yl)methyl)-3,3-difluoropiperidin-4-yl)thio)-1-oxoisoindolin-2-yl)piperidine-2,6-dione]	100 to 500	–	500 to 1000	–	A (0%≤ substrate protein remaining % ≤80%)	–	–	A (0%≤ substrate protein remaining % ≤80%)	A (0%≤ substrate protein remaining % ≤80%)
CC1(C)CCC(CN2CCC(Sc3ccc4c(c3)CN(C3CCC(=O)NC3=O)C4=O)C(F)(F)C2)=C(c2ccc(Cl)cc2)C1 (stereo not drawn) [GT-06960, 3-(5-((1-((4′-chloro-5,5-dimethyl-3,4,5,6-tetrahydro-[1,1′-biphenyl]-2-yl)methyl)-3,3-difluoropiperidin-4-yl)thio)-1-oxoisoindolin-2-yl)piperidine-2,6-dione]	500 to 1000	–	–	A (0%≤ substrate protein remaining % ≤80%)	A (0%≤ substrate protein remaining % ≤80%)	–	–	–	A (0%≤ substrate protein remaining % ≤80%)
CC1(C)CCC(CN2CCC(Oc3ccc4c(c3)CN(C3CCC(=O)NC3=O)C4=O)C2)=C(c2ccc(Cl)cc2)C1 (stereo not drawn) [GT-06815, 3-(5-((1-((4′-chloro-5,5-dimethyl-3,4,5,6-tetrahydro-[1,1′-biphenyl]-2-yl)methyl)pyrrolidin-3-yl)oxy)-1-oxoisoindolin-2-yl)piperidine-2,6-dione]	500 to 1000	1 to 1.9	–	A (0%≤ substrate protein remaining % ≤80%)	A (0%≤ substrate protein remaining % ≤80%)	A (0%≤ substrate protein remaining % ≤80%)	A (0%≤ substrate protein remaining % ≤80%)	A (0%≤ substrate protein remaining % ≤80%)	A (0%≤ substrate protein remaining % ≤80%)
